Laboratory results from ChEMBL document CHEMBL1129994, “Synthesis and transporter binding properties of 2,3-diphenyltropane stereoisomers. Comparison to 3beta-phenyltropane-2beta-carboxylic acid esters” (J Med Chem, 1997).

How the values were obtained:
[1] = target: Norepinephrine transporter (Rattus norvegicus, UniProt Q9WTR4); assay: Inhibitory activity against Norepinephrine transporter using 0.5 nM [3H]-radioligand
[2] = target: Sodium-dependent serotonin transporter (Rattus norvegicus, UniProt P31652); assay: Inhibitory activity against Serotonin transporter using 0.2 nM [3H]paroxetine as radioligand
[3] = target: Sodium-dependent dopamine transporter (Rattus norvegicus, UniProt P23977); assay: Inhibitory activity against Dopamine transporter using 0.5 nM [3H]WIN-35428 as radioligand
Sodium-dependent dopamine transporter, sequence (P23977 whole entry): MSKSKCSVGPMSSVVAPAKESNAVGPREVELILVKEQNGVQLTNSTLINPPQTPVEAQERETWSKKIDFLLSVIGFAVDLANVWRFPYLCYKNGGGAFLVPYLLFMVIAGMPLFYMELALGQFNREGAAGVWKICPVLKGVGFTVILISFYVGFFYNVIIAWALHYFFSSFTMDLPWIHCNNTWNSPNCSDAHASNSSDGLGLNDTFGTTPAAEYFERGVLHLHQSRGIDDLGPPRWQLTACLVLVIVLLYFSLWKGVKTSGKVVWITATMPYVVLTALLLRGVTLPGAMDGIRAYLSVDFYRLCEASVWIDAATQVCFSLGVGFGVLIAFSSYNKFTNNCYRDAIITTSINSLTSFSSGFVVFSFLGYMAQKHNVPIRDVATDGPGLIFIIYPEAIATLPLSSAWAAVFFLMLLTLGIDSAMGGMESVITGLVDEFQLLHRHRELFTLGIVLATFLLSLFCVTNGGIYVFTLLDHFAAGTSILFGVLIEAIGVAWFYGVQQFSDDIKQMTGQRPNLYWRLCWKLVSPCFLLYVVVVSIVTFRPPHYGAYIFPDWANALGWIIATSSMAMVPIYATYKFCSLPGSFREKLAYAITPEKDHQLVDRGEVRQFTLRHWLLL

Norepinephrine transporter, sequence (Q9WTR4 whole entry): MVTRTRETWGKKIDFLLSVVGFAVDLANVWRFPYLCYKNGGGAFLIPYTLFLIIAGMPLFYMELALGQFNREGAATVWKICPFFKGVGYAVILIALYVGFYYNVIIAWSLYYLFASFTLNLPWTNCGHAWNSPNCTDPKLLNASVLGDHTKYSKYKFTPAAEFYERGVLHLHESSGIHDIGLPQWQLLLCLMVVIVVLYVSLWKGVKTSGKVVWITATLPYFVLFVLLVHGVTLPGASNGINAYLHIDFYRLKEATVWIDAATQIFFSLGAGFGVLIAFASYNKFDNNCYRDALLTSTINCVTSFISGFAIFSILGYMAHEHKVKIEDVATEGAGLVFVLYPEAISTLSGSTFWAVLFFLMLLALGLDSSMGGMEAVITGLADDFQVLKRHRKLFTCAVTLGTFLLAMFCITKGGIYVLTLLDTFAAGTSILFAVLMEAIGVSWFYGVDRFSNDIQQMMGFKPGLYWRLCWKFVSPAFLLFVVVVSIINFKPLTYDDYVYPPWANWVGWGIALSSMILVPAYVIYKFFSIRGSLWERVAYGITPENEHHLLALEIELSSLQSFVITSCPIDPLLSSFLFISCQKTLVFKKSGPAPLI
Sodium-dependent serotonin transporter, sequence (P31652 whole entry): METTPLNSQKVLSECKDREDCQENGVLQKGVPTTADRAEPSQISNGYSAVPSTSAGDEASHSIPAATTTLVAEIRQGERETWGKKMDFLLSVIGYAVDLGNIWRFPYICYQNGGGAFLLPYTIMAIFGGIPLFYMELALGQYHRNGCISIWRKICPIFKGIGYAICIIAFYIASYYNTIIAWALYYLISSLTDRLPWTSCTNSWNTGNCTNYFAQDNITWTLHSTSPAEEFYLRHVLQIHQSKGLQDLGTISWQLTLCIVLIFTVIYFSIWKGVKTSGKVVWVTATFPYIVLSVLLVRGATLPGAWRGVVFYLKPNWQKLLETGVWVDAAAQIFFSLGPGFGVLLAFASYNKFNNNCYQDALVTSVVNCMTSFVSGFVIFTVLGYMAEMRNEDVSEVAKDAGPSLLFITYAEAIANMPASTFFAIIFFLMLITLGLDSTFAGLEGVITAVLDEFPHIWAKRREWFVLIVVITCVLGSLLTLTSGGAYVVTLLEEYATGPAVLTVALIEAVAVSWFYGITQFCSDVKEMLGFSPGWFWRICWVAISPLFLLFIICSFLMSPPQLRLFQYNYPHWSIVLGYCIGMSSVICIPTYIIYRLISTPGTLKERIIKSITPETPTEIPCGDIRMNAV

| SMILES | IC50 [1] | IC50 [2] | IC50 [3] |
| --- | --- | --- | --- |
| CN1[C@@H]2CC[C@@H]1C(O)(c1ccccc1)C(c1ccccc1)C2 (mixture of isomers) | > 175 µM | 37.2 µM | 2.86 µM |
| CN1C2CCC1C(c1ccccc1)=C(c1ccccc1)C2 (racemic) | 21.4 µM | 47.8 µM | 0.55 µM |
| CN1[C@@H]2CC[C@H]1[C@H](c1ccccc1)[C@H](c1ccccc1)C2 (racemic) | 2.77 µM | 18.6 µM |  |
| CN1[C@@H]2CC[C@H]1[C@@H](c1ccccc1)[C@@H](c1ccccc1)C2 (racemic) | 2.67 µM | 34.7 µM | 0.028 µM |
